Data as given in PMC6409085, “Three odorant-binding proteins are involved in the behavioral response of Sogatella furcifera to rice plant volatiles” (PeerJ, 2019).
Several values for one entry are separate records, joined by “and”; a condition that tells them apart may be missing. Identical values can stand only once.

How the values were obtained:
[1] = system: S. furcifera adults; test: Y-tube olfactometer behavioral trials; assay type: in vivo, Sogatella furcifera; conditions: odorant 50 µL/L vs hexane; adults
In short: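 Single S. furcifera adults (2 days post-emergence, starved 0.5 h) chose between odorant (100 µL of 50 µL/L on filter paper) and hexane control in a glass Y-tube, charcoal-filtered humidified air 300 mL/min per arm, 25 ± 1 °C, 50% RH. Choice scored if insect passed half an arm and stayed >1 min within 10 min; 45 insects per compound, chi-squared test.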

[2] = molecular target: SfurOBP11 (Sogatella furcifera, UniProt V5T6E3); test: biochemical; assay type: binding
In short: (§1)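 1-NPN displacement assay with odorant competitor at 2–20 µM; protein and probe both 2.0 µM at pH 7.4. Ki is calculated from IC50 using the protein/1-NPN dissociation constant.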

[3] = molecular target: SfurOBP3 (Sogatella furcifera, UniProt V5T818); test: biochemical; assay type: binding; conditions: for Fluorescence competitive binding assay, fluorescence intensity: OBP3, three replicate columns
In short: as §1

[4] = molecular target: SfurOBP1 (Sogatella furcifera, UniProt V5T8N5); test: biochemical; assay type: binding; conditions: for Fluorescence competitive binding assay, fluorescence intensity: OBP1, three replicate columns
In short: as §1

[5] = molecular target: SfurOBP2 (Sogatella furcifera, UniProt V5T759); test: biochemical; assay type: binding
In short: as §1

Sequence of SfurOBP1 (V5T8N5 entry or part of it): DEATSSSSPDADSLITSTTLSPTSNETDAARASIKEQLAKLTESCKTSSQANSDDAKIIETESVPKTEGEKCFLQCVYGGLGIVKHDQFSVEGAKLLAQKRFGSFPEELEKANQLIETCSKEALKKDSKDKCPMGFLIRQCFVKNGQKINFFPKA
Sequence of SfurOBP2 (V5T759 entry or part of it): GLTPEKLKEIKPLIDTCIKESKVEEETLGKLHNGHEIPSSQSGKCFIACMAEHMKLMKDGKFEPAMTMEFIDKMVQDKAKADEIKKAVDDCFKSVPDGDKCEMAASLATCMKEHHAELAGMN
Sequence of SfurOBP3 (V5T818 entry or part of it): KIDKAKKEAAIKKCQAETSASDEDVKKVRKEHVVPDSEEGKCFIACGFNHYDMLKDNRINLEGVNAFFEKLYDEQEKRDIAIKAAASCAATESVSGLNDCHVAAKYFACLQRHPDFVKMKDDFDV
Sequence of SfurOBP11 (V5T6E3 entry or part of it): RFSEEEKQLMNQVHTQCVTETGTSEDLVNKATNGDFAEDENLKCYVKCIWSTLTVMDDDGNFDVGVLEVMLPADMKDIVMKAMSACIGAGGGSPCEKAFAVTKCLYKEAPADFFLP

Question: With `O=Cc1ccccc1` [benzaldehyde] as the molecule, how does the “number of insects choosing hexane arm” value [1] read?
Answer: 10

Question: And the “number of insects choosing volatilies arm” value [1]?
Answer: 7

Question: What about the “number of insects failed (no choice)” value [1] of the same molecule?
Answer: 23

Question: What about the IC50 [2] of the same molecule?
Answer: > 20 µM

Question: What about the “Fluorescence intensity, fluorescence competitive binding assay, OBP11” value (shortened to “Fluorescence intensity … OBP11”) ([2]; ligand concentration 2, replicate 1) of the same molecule?
Answer: 25700

Question: What about the “Fluorescence intensity … OBP11” value ([2]; ligand concentration 2, replicate 2) of the same molecule?
Answer: 26420

Question: And the “Fluorescence intensity … OBP11” value ([2]; ligand concentration 2, replicate 3)?
Answer: 26489

Question: What about the “Fluorescence intensity … OBP11” value ([2]; ligand concentration 4, replicate 1) of the same molecule?
Answer: 25103

Question: What about the “Fluorescence intensity … OBP11” value ([2]; ligand concentration 4, replicate 2) of the same molecule?
Answer: 25939

Question: What about the “Fluorescence intensity … OBP11” value ([2]; ligand concentration 4, replicate 3) of the same molecule?
Answer: 26917

Question: And the “Fluorescence intensity … OBP11” value ([2]; ligand concentration 6, replicate 1)?
Answer: 24540

Question: And the “Fluorescence intensity … OBP11” value ([2]; ligand concentration 6, replicate 2)?
Answer: 24263

Question: And the “Fluorescence intensity … OBP11” value ([2]; ligand concentration 6, replicate 3)?
Answer: 26004

Question: And the “Fluorescence intensity … OBP11” value ([2]; ligand concentration 8, replicate 1)?
Answer: 24810

Question: What about the “Fluorescence intensity … OBP11” value ([2]; ligand concentration 8, replicate 2) of the same molecule?
Answer: 23717

Question: What about the “Fluorescence intensity … OBP11” value ([2]; ligand concentration 8, replicate 3) of the same molecule?
Answer: 25921

Question: What about the “Fluorescence intensity … OBP11” value ([2]; ligand concentration 10, replicate 1) of the same molecule?
Answer: 21750

Question: And the “Fluorescence intensity … OBP11” value ([2]; ligand concentration 10, replicate 2)?
Answer: 22655

Question: And the “Fluorescence intensity … OBP11” value ([2]; ligand concentration 10, replicate 3)?
Answer: 24544

Question: What about the “Fluorescence intensity … OBP11” value ([2]; ligand concentration 12, replicate 1) of the same molecule?
Answer: 22377

Question: And the “Fluorescence intensity … OBP11” value ([2]; ligand concentration 12, replicate 2)?
Answer: 22204

Question: What about the “Fluorescence intensity … OBP11” value ([2]; ligand concentration 12, replicate 3) of the same molecule?
Answer: 22549

Question: And the “Fluorescence intensity … OBP11” value ([2]; ligand concentration 14, replicate 1)?
Answer: 20889

Question: What about the “Fluorescence intensity … OBP11” value ([2]; ligand concentration 14, replicate 2) of the same molecule?
Answer: 20823

Question: What about the “Fluorescence intensity … OBP11” value ([2]; ligand concentration 14, replicate 3) of the same molecule?
Answer: 20954

Question: And the “Fluorescence intensity … OBP11” value ([2]; ligand concentration 16, replicate 1)?
Answer: 18305

Question: And the “Fluorescence intensity … OBP11” value ([2]; ligand concentration 16, replicate 2)?
Answer: 18429

Question: And the “Fluorescence intensity … OBP11” value ([2]; ligand concentration 16, replicate 3)?
Answer: 20008

Question: What about the “Fluorescence intensity … OBP11” value ([2]; ligand concentration 18, replicate 1) of the same molecule?
Answer: 18084

Question: And the “Fluorescence intensity … OBP11” value ([2]; ligand concentration 18, replicate 2)?
Answer: 18788

Question: And the “Fluorescence intensity … OBP11” value ([2]; ligand concentration 18, replicate 3)?
Answer: 18463

Question: What about the “Fluorescence intensity … OBP11” value ([2]; ligand concentration 20, replicate 1) of the same molecule?
Answer: 17844

Question: And the “Fluorescence intensity … OBP11” value ([2]; ligand concentration 20, replicate 2)?
Answer: 18414

Question: What about the “Fluorescence intensity … OBP11” value ([2]; ligand concentration 20, replicate 3) of the same molecule?
Answer: 17540

Question: And the IC50 [3]?
Answer: > 20 µM

Question: And the “Fluorescence competitive binding assay, fluorescence intensity” value ([3]; ligand concentration 2)?
Answer: 45330 and 44709 and 45950

Question: And the “Fluorescence competitive binding assay, fluorescence intensity” value ([3]; ligand concentration 4)?
Answer: 42404 and 44063 and 46652

Question: What about the “Fluorescence competitive binding assay, fluorescence intensity” value ([3]; ligand concentration 6) of the same molecule?
Answer: 42957 and 46006 and 45764

Question: And the “Fluorescence competitive binding assay, fluorescence intensity” value ([3]; ligand concentration 8)?
Answer: 41484 and 44807 and 44761

Question: And the “Fluorescence competitive binding assay, fluorescence intensity” value ([3]; ligand concentration 10)?
Answer: 42296 and 40919 and 43670

Question: And the “Fluorescence competitive binding assay, fluorescence intensity” value ([3]; ligand concentration 12)?
Answer: 40362 and 40474 and 40259

Question: What about the “Fluorescence competitive binding assay, fluorescence intensity” value ([3]; ligand concentration 14) of the same molecule?
Answer: 36140 and 35545 and 34940

Question: What about the “Fluorescence competitive binding assay, fluorescence intensity” value ([3]; ligand concentration 16) of the same molecule?
Answer: 32608 and 31985 and 31371

Question: And the “Fluorescence competitive binding assay, fluorescence intensity” value ([3]; ligand concentration 18)?
Answer: 31185 and 31705 and 30913

Question: What about the “Fluorescence competitive binding assay, fluorescence intensity” value ([3]; ligand concentration 20) of the same molecule?
Answer: 30533 and 30370 and 31330

Question: What about the IC50 [4] of the same molecule?
Answer: > 20 µM

Question: What about the “Fluorescence competitive binding assay, fluorescence intensity” value ([4]; ligand concentration 2 (μM)) of the same molecule?
Answer: 6748 and 7004 and 6492

Question: What about the “Fluorescence competitive binding assay, fluorescence intensity” value ([4]; ligand concentration 4 (μM)) of the same molecule?
Answer: 7245 and 7115 and 7374

Question: What about the “Fluorescence competitive binding assay, fluorescence intensity” value ([4]; ligand concentration 6 (μM)) of the same molecule?
Answer: 6061 and 6132 and 7040

Question: And the “Fluorescence competitive binding assay, fluorescence intensity” value ([4]; ligand concentration 8 (μM))?
Answer: 7119 and 7198 and 8488

Question: And the “Fluorescence competitive binding assay, fluorescence intensity” value ([4]; ligand concentration 10 (μM))?
Answer: 6689 and 6820 and 6663

Question: And the “Fluorescence competitive binding assay, fluorescence intensity” value ([4]; ligand concentration 12 (μM))?
Answer: 6039 and 7567 and 5952

Question: What about the “Fluorescence competitive binding assay, fluorescence intensity” value ([4]; ligand concentration 14 (μM)) of the same molecule?
Answer: 5985 and 6868 and 6969

Question: And the “Fluorescence competitive binding assay, fluorescence intensity” value ([4]; ligand concentration 16 (μM))?
Answer: 5390 and 5637 and 6081

Question: And the “Fluorescence competitive binding assay, fluorescence intensity” value ([4]; ligand concentration 18 (μM))?
Answer: 7493 and 9048 and 6239

Question: What about the “Fluorescence competitive binding assay, fluorescence intensity” value ([4]; ligand concentration 20 (μM)) of the same molecule?
Answer: 8583 and 7861 and 5961

Question: And the IC50 [5]?
Answer: > 20 µM

Question: What about the “Fluorescence competitive binding assay, OBP2 (raw fluorescence reading)” value ([5]; ligand concentration 2 (unit not given), replicate column 1 of 3) of the same molecule?
Answer: 15507

Question: And the “Fluorescence competitive binding assay, OBP2 (raw fluorescence reading)” value ([5]; ligand concentration 2 (unit not given), replicate column 2 of 3)?
Answer: 14848

Question: What about the “Fluorescence competitive binding assay, OBP2 (raw fluorescence reading)” value ([5]; ligand concentration 2 (unit not given), replicate column 3 of 3) of the same molecule?
Answer: 15027

Question: And the “Fluorescence competitive binding assay, OBP2 (raw fluorescence reading)” value ([5]; ligand concentration 4 (unit not given), replicate column 1 of 3)?
Answer: 14937

Question: And the “Fluorescence competitive binding assay, OBP2 (raw fluorescence reading)” value ([5]; ligand concentration 4 (unit not given), replicate column 2 of 3)?
Answer: 13962

Question: And the “Fluorescence competitive binding assay, OBP2 (raw fluorescence reading)” value ([5]; ligand concentration 4 (unit not given), replicate column 3 of 3)?
Answer: 14585

Question: What about the “Fluorescence competitive binding assay, OBP2 (raw fluorescence reading)” value ([5]; ligand concentration 6 (unit not given), replicate column 1 of 3) of the same molecule?
Answer: 13559

Question: And the “Fluorescence competitive binding assay, OBP2 (raw fluorescence reading)” value ([5]; ligand concentration 6 (unit not given), replicate column 2 of 3)?
Answer: 14529

Question: And the “Fluorescence competitive binding assay, OBP2 (raw fluorescence reading)” value ([5]; ligand concentration 6 (unit not given), replicate column 3 of 3)?
Answer: 14868

Question: And the “Fluorescence competitive binding assay, OBP2 (raw fluorescence reading)” value ([5]; ligand concentration 8 (unit not given), replicate column 1 of 3)?
Answer: 13310

Question: And the “Fluorescence competitive binding assay, OBP2 (raw fluorescence reading)” value ([5]; ligand concentration 8 (unit not given), replicate column 2 of 3)?
Answer: 14622

Question: And the “Fluorescence competitive binding assay, OBP2 (raw fluorescence reading)” value ([5]; ligand concentration 8 (unit not given), replicate column 3 of 3)?
Answer: 14449

Question: What about the “Fluorescence competitive binding assay, OBP2 (raw fluorescence reading)” value ([5]; ligand concentration 10 (unit not given), replicate column 1 of 3) of the same molecule?
Answer: 13559

Question: And the “Fluorescence competitive binding assay, OBP2 (raw fluorescence reading)” value ([5]; ligand concentration 10 (unit not given), replicate column 2 of 3)?
Answer: 13459

Question: What about the “Fluorescence competitive binding assay, OBP2 (raw fluorescence reading)” value ([5]; ligand concentration 10 (unit not given), replicate column 3 of 3) of the same molecule?
Answer: 14101

Question: What about the “Fluorescence competitive binding assay, OBP2 (raw fluorescence reading)” value ([5]; ligand concentration 12 (unit not given), replicate column 1 of 3) of the same molecule?
Answer: 13500

Question: What about the “Fluorescence competitive binding assay, OBP2 (raw fluorescence reading)” value ([5]; ligand concentration 12 (unit not given), replicate column 2 of 3) of the same molecule?
Answer: 13742

Question: What about the “Fluorescence competitive binding assay, OBP2 (raw fluorescence reading)” value ([5]; ligand concentration 12 (unit not given), replicate column 3 of 3) of the same molecule?
Answer: 13318

Question: What about the “Fluorescence competitive binding assay, OBP2 (raw fluorescence reading)” value ([5]; ligand concentration 14 (unit not given), replicate column 1 of 3) of the same molecule?
Answer: 12764

Question: What about the “Fluorescence competitive binding assay, OBP2 (raw fluorescence reading)” value ([5]; ligand concentration 14 (unit not given), replicate column 2 of 3) of the same molecule?
Answer: 13284

Question: What about the “Fluorescence competitive binding assay, OBP2 (raw fluorescence reading)” value ([5]; ligand concentration 14 (unit not given), replicate column 3 of 3) of the same molecule?
Answer: 13618

Question: What about the “Fluorescence competitive binding assay, OBP2 (raw fluorescence reading)” value ([5]; ligand concentration 16 (unit not given), replicate column 1 of 3) of the same molecule?
Answer: 12066

Question: What about the “Fluorescence competitive binding assay, OBP2 (raw fluorescence reading)” value ([5]; ligand concentration 16 (unit not given), replicate column 2 of 3) of the same molecule?
Answer: 12546

Question: And the “Fluorescence competitive binding assay, OBP2 (raw fluorescence reading)” value ([5]; ligand concentration 16 (unit not given), replicate column 3 of 3)?
Answer: 12131

Question: And the “Fluorescence competitive binding assay, OBP2 (raw fluorescence reading)” value ([5]; ligand concentration 18 (unit not given), replicate column 1 of 3)?
Answer: 11847

Question: What about the “Fluorescence competitive binding assay, OBP2 (raw fluorescence reading)” value ([5]; ligand concentration 18 (unit not given), replicate column 2 of 3) of the same molecule?
Answer: 12489

Question: What about the “Fluorescence competitive binding assay, OBP2 (raw fluorescence reading)” value ([5]; ligand concentration 18 (unit not given), replicate column 3 of 3) of the same molecule?
Answer: 12075

Question: What about the “Fluorescence competitive binding assay, OBP2 (raw fluorescence reading)” value ([5]; ligand concentration 20 (unit not given), replicate column 1 of 3) of the same molecule?
Answer: 11984

Question: What about the “Fluorescence competitive binding assay, OBP2 (raw fluorescence reading)” value ([5]; ligand concentration 20 (unit not given), replicate column 2 of 3) of the same molecule?
Answer: 12356

Question: What about the “Fluorescence competitive binding assay, OBP2 (raw fluorescence reading)” value ([5]; ligand concentration 20 (unit not given), replicate column 3 of 3) of the same molecule?
Answer: 11918
